From ChEMBL document CHEMBL1821570, “Inhibition of the helicase activity of the HCV NS3 protein by symmetrical dimeric bis-benzimidazoles” (Bioorg Med Chem Lett, 2011)
Calls of active or inactive are those of the source. The rule behind the calls is not given here.

Tests used:
Hepacivirus hominis [1] = assay: Inhibition of recombinant hepatitis C virus NS3 helicase domain NTPase activity by TLC
[2] = Inhibition of recombinant hepatitis C virus NS3 helicase domain using DNA duplex SM1 labelled with [gamma-32P]ATP as substrate after 30 mins; parameters: species or system Hepacivirus hominis
[3] = Inhibition of recombinant hepatitis C virus NS3 helicase domain using DNA duplex S(DB2)b labelled with [gamma-32P]ATP as substrate after 30 mins; parameters: species or system Hepacivirus hominis
[4] = Inhibition of recombinant hepatitis C virus NS3 helicase domain using DNA duplex S(DB11) labelled with [gamma-32P]ATP as substrate after 30 mins; parameters: species or system Hepacivirus hominis
[5] = Inhibition of recombinant hepatitis C virus NS3 helicase domain using DNA duplex S(DB2)a labelled with [gamma-32P]ATP as substrate after 30 mins; parameters: species or system Hepacivirus hominis
Hepacivirus hominis [6] = assay: Inhibition of recombinant hepatitis C virus NS3 helicase domain using DNA duplex S(DB2)b labelled with [gamma-32P]ATP as substrate up to 400 after 30 mins
Hepacivirus hominis [7] = assay: Inhibition of recombinant hepatitis C virus NS3 helicase domain using DNA duplex S(DB2)a labelled with [gamma-32P]ATP as substrate up to 400 after 30 mins
Hepacivirus hominis [8] = assay: Inhibition of recombinant hepatitis C virus NS3 helicase domain using DNA duplex SM1 labelled with [gamma-32P]ATP as substrate up to 400 after 30 mins
Hepacivirus hominis [9] = assay: Inhibition of recombinant hepatitis C virus NS3 helicase domain using DNA duplex S(DB11) labelled with [gamma-32P]ATP as substrate up to 400 after 30 mins
Hepacivirus hominis [10] = assay: Inhibition of recombinant hepatitis C virus NS3 helicase domain using DNA duplex S1 labelled with [gamma-32P]ATP as substrate up to 400 after 30 mins
Hepacivirus hominis [11] = assay: Inhibition of recombinant hepatitis C virus NS3 helicase domain NTPase activity at 400 uM by TLC in presence of poly(U)
[12] = Inhibition of recombinant hepatitis C virus NS3 helicase domain using RNA duplex rSM2 labelled with [gamma-32P]ATP as substrate after 30 mins; parameters: species or system Hepacivirus hominis
[13] = Inhibition of recombinant hepatitis C virus NS3 helicase domain NTPase activity by TLC in presence of poly(U); parameters: species or system Hepacivirus hominis
[14] = Inhibition of recombinant hepatitis C virus NS3 helicase domain using DNA duplex S1 labelled with [gamma-32P]ATP as substrate after 30 mins; parameters: species or system Hepacivirus hominis
[15] = Inhibition of recombinant hepatitis C virus NS3 helicase domain using DNA duplex SM2 labelled with [gamma-32P]ATP as substrate after 30 mins; parameters: species or system Hepacivirus hominis
Hepacivirus hominis [16] = assay: Inhibition of recombinant hepatitis C virus NS3 helicase domain by PTI spectrofluorimetry
Hepacivirus hominis [17] = assay: Inhibition of recombinant hepatitis C virus NS3 helicase domain assessed as the enzyme concentration at which a half of compound molecules are bound by PTI spectrofluorimetry
Hepacivirus hominis [18] = assay: Enhancement of binding efficacy between compound-treated recombinant hepatitis C virus NS3 helicase and 32P-labelled SM1 DNA duplex after 10 mins

inhibition (Hepacivirus hominis [1]) | IC50 [2] [µM] | IC50 [3] [µM] | IC50 [4] [µM] | IC50 [5] [µM] | inhibition (Hepacivirus hominis [11]) | IC50 [12] [µM] | IC50 [13] [µM] | IC50 [14] [µM] | IC50 [15] [µM] | inhibition (Hepacivirus hominis [16]) | Activity (Hepacivirus hominis [17]) [µM] | Activity (Hepacivirus hominis [18]) | Compound | inhibition (Hepacivirus hominis [6]) | inhibition (Hepacivirus hominis [7]) | inhibition (Hepacivirus hominis [8]) | inhibition (Hepacivirus hominis [9]) | inhibition (Hepacivirus hominis [10])
inactive | 230 | 240 | 170 | 150 |  |  |  |  |  |  |  |  | CN1CCN(c2ccc3nc(-c4ccc5nc(CNC(=O)CCCCC(=O)NCc6nc7ccc(-c8nc9ccc(N%10CCN(C)CC%10)cc9[nH]8)cc7[nH]6)[nH]c5c4)[nH]c3c2)CC1 |  |  |  |  | 
inactive | 7 | 12 | 8 | 7 | inactive | 1.4 | 20 | 10 | 9 | Active | 7.3 | Active | CN1CCN(c2ccc3nc(-c4ccc5nc(CNC(=O)CCCCCCCCCCCC(=O)NCc6nc7ccc(-c8nc9ccc(N%10CCN(C)CC%10)cc9[nH]8)cc7[nH]6)[nH]c5c4)[nH]c3c2)CC1 |  |  |  |  | 
inactive | 230 | 260 | 240 | 250 | inactive | 38 | 280 | > 100 | 240 | inactive | 51 | inactive | CN1CCN(c2ccc3nc(-c4ccc5nc(CNC(=O)CCC(=O)NCc6nc7ccc(-c8nc9ccc(N%10CCN(C)CC%10)cc9[nH]8)cc7[nH]6)[nH]c5c4)[nH]c3c2)CC1 |  |  |  |  | 
inactive |  |  |  |  |  |  |  |  |  |  |  |  | CC(=O)NCc1nc2ccc(-c3nc4ccc(N5CCN(C)CC5)cc4[nH]3)cc2[nH]1 | inactive | inactive | inactive | inactive | inactive
inactive | 235 | 250 | 230 | 220 |  |  |  | > 100 |  |  |  |  | CN1CCN(c2ccc3nc(-c4ccc5nc(CNC(=O)CCCC(=O)NCc6nc7ccc(-c8nc9ccc(N%10CCN(C)CC%10)cc9[nH]8)cc7[nH]6)[nH]c5c4)[nH]c3c2)CC1 |  |  |  |  | 
inactive | 18 | 10 | 15 | 12 |  |  |  | 5 |  |  |  |  | CN(CCCOc1ccc(-c2nc3ccc(-c4nc5ccc(N6CCN(C)CC6)cc5[nH]4)cc3[nH]2)cc1)CCCOc1ccc(-c2nc3ccc(-c4nc5ccc(N6CCN(C)CC6)cc5[nH]4)cc3[nH]2)cc1 |  |  |  |  | 
inactive | 225 | 200 | 160 | 150 |  |  |  | > 100 |  |  |  |  | CN1CCN(c2ccc3nc(-c4ccc5nc(CNC(=O)CCCCCC(=O)NCc6nc7ccc(-c8nc9ccc(N%10CCN(C)CC%10)cc9[nH]8)cc7[nH]6)[nH]c5c4)[nH]c3c2)CC1 |  |  |  |  | 
inactive | 210 | 140 | 140 | 150 |  |  |  | > 100 |  |  |  |  | CN1CCN(c2ccc3nc(-c4ccc5nc(CNC(=O)CCCCCCCC(=O)NCc6nc7ccc(-c8nc9ccc(N%10CCN(C)CC%10)cc9[nH]8)cc7[nH]6)[nH]c5c4)[nH]c3c2)CC1 |  |  |  |  | 

Compound | inhibition (Hepacivirus hominis [1]) | IC50 [2] [µM] | IC50 [3] [µM] | IC50 [4] [µM] | IC50 [5] [µM] | inhibition (Hepacivirus hominis [11]) | IC50 [12] [µM] | IC50 [13] [µM] | IC50 [14] [µM] | IC50 [15] [µM] | inhibition (Hepacivirus hominis [16]) | Activity (Hepacivirus hominis [17]) [µM] | Activity (Hepacivirus hominis [18]) | inhibition (Hepacivirus hominis [6]) | inhibition (Hepacivirus hominis [7]) | inhibition (Hepacivirus hominis [8]) | inhibition (Hepacivirus hominis [9]) | inhibition (Hepacivirus hominis [10])
CN1CCN(c2ccc3[nH]c(-c4ccc5[nH]c(-c6ccc(O)cc6)nc5c4)nc3c2)CC1 | inactive |  |  |  |  |  |  |  |  |  |  |  |  | inactive | inactive | inactive | inactive | inactive
